Patent US20230094922A1, “METHODS OF THERAPEUTIC PROGNOSTICATION” (GENETIKAPLUS LTD., priority 2020, published 2023)

Tested on: iPSC-derived cortical neurons
Test: RNA sequencing, differential gene expression: Bupropion-treated vs vehicle-only induced neurons (Tables 5, 6)
Format: cell-based, human
Description: iPSC differentiation into neurons-iPSCs were seeded at a density of 3×10^6 cells/well on a hESC-qualified Matrigel pre-coated 6-well plate and incubated at 37° C., 5% CO2 overnight. Differentiation was initiated the following day (day 0) after verifying that 100% confluency was reached. Differentiation media was added daily according to the following order: […]7 (day 15 onward) similar to a previously published protocol developed by for rapid differentiation to cortical neurons. The components of the described media, Q1-7, are provided in Appendix 1. Cells were assessed for differentiation efficiency and cell death on a daily basis. On day 9, differentiated neurons were re-plated on either 96-well plates (destined for staining) or 12-well plates (destined for RNA extraction) that were coated with 15 μg/mL Poly-ornithine diluted in PBS (overnight incubation at 37° C.), followed by 1 μg/mL Laminin and 2 μg/mL Fibronectin diluted in PBS (overnight incubation at 37° C.): Neurons were first rinsed with pre-warmed PBS and 1 ml/well of Accutase was added for 35 minutes at 37° C., 5% CO2. DNAse1 (0.5 mg/mL) was then added for 10 additional minutes. 3 ml of pre-warmed Neurobasal media was added to each well and neurons were gently collected using a 5 ml […]. Wells were then verified for the presence of any remaining neurons. Neurons were spun down and resuspended in Q6 media. Neurons were seeded at a density of 150,000 cells/cm^2 placed back at 37° C. Following four hours of incubation, media was changed to Q6 media (150 μl per 96-well and 1 ml per 12-well). […] RNA-sequencing samples were aligned to the GRCh38 reference genome using STAR aligner. TMM normalization of RNA read counts and differential gene expression analysis were carried out using edgeR. […] Cells were reprogrammed into iPSCs, following which iPSCs were differentiated into frontal cortical neuronal cells (see Materials and Methods). […] Another dose of drug or control was also administered at day 32. At day 35 neurons were either fixed for histological examination or isolated for RNA extraction.

[1] = 10 μM Bupropion vs vehicle, responder-derived neurons, day 35, PValue NS (not significant)
[2] = Bupropion vs vehicle only, p<0.05, over 60,000 genes probed

Question: Which results are given for `CC(NC(C)(C)C)C(=O)c1cccc(Cl)c1` (stereo not drawn) [Bupropion, 3-Chloro-N-tert-butyl-β-keto-α-methylphenethylamin]?
Answer: logFC NFKBID expression (10 μM Bupropion vs vehicle, responder-derived neurons, day 35, PValue 0.003685448): −0.6042; logFC TCF7 expression (10 μM Bupropion vs vehicle, responder-derived neurons, day 35, PValue 0.005666754): −0.3904; logFC DUSP23 expression (10 μM Bupropion vs vehicle, responder-derived neurons, day 35, PValue 0.006214757): −0.4927; logFC TENT5B expression (10 μM Bupropion vs vehicle, responder-derived neurons, day 35, PValue 0.008132328): −0.8021; logFC UGT3A2 expression (10 μM Bupropion vs vehicle, responder-derived neurons, day 35, PValue 0.009321582): −0.4889; logFC CCDC51 expression (10 μM Bupropion vs vehicle, responder-derived neurons, day 35, PValue 0.012079592): −0.2443; logFC CTNS expression (10 μM Bupropion vs vehicle, responder-derived neurons, day 35, PValue 0.013463621): −0.2404; logFC PYCARD expression (10 μM Bupropion vs vehicle, responder-derived neurons, day 35, PValue 0.013981248): −1.05; logFC ABHD4 expression (10 μM Bupropion vs vehicle, responder-derived neurons, day 35, PValue 0.014582448): −0.3111; logFC PTPRQ expression (10 μM Bupropion vs vehicle, responder-derived neurons, day 35, PValue 0.018081564): 0.89; logFC SMPDL3B expression (10 μM Bupropion vs vehicle, responder-derived neurons, day 35, PValue 0.022812161): −0.7488; logFC KLC3 expression (10 μM Bupropion vs vehicle, responder-derived neurons, day 35, PValue 0.023692875): −0.8533; logFC PNKP expression (10 μM Bupropion vs vehicle, responder-derived neurons, day 35, PValue 0.024437941): −0.2172; logFC SPNS1 expression (10 μM Bupropion vs vehicle, responder-derived neurons, day 35, PValue 0.024838304): −0.7022; logFC FAM117A expression (10 μM Bupropion vs vehicle, responder-derived neurons, day 35, PValue 0.025868873): −0.2485; logFC PPL expression (10 μM Bupropion vs vehicle, responder-derived neurons, day 35, PValue 0.026069274): −0.3932; logFC ZNF425 expression (10 μM Bupropion vs vehicle, responder-derived neurons, day 35, PValue 0.026180649): −0.2317; logFC MT2A expression (Table 6, downregulated) (10 μM Bupropion vs vehicle, responder-derived neurons, day 35, PValue 0.02632325): −0.7705; logFC COX16 expression (10 μM Bupropion vs vehicle, responder-derived neurons, day 35, PValue 0.026606667): 0.3985; logFC RSAD2 expression (10 μM Bupropion vs vehicle, responder-derived neurons, day 35, PValue 0.026606947): 0.9753; logFC PPP1R1B expression (10 μM Bupropion vs vehicle, responder-derived neurons, day 35, PValue 0.026677416): −0.677; logFC LLPH expression (10 μM Bupropion vs vehicle, responder-derived neurons, day 35, PValue 0.026874183): 0.1758; logFC CKS1B expression (10 μM Bupropion vs vehicle, responder-derived neurons, day 35, PValue 0.02807621): −0.3153; logFC LGR6 expression (10 μM Bupropion vs vehicle, responder-derived neurons, day 35, PValue 0.028853165): −0.6091; logFC TSTD2 expression (10 μM Bupropion vs vehicle, responder-derived neurons, day 35, PValue 0.028984217): 0.1932; logFC HS3ST5 expression (10 μM Bupropion vs vehicle, responder-derived neurons, day 35, PValue 0.028999172): 0.5251; logFC ART5 expression (10 μM Bupropion vs vehicle, responder-derived neurons, day 35, PValue 0.030155652): −0.5082; logFC ADRA2B expression (10 μM Bupropion vs vehicle, responder-derived neurons, day 35, PValue 0.031233579): −0.7451; logFC ZNF394 expression (10 μM Bupropion vs vehicle, responder-derived neurons, day 35, PValue 0.031885505): −0.1977; logFC CHMP4A expression (10 μM Bupropion vs vehicle, responder-derived neurons, day 35, PValue 0.031923817): 0.3939; logFC ETV5 expression (10 μM Bupropion vs vehicle, responder-derived neurons, day 35, PValue 0.031953602): −0.2432; logFC VWA2 expression (10 μM Bupropion vs vehicle, responder-derived neurons, day 35, PValue 0.033110679): −0.8249; logFC CDC42BPG expression (10 μM Bupropion vs vehicle, responder-derived neurons, day 35, PValue 0.034205433): −0.6386; logFC PSD3 expression (10 μM Bupropion vs vehicle, responder-derived neurons, day 35, PValue 0.034363174): 0.2947; logFC TRAF3IP2 expression (10 μM Bupropion vs vehicle, responder-derived neurons, day 35, PValue 0.035638975): −0.342; logFC TXNRD2 expression (10 μM Bupropion vs vehicle, responder-derived neurons, day 35, PValue 0.036129679): −0.3971; logFC RAB43 expression (10 μM Bupropion vs vehicle, responder-derived neurons, day 35, PValue 0.036339642): −0.7667; logFC APOE expression (10 μM Bupropion vs vehicle, responder-derived neurons, day 35, PValue 0.036466348): −0.4756; logFC TYW1B expression (10 μM Bupropion vs vehicle, responder-derived neurons, day 35, PValue 0.037441749): −0.2836; logFC ARL17B expression (10 μM Bupropion vs vehicle, responder-derived neurons, day 35, PValue 0.037774775): 0.4487; logFC TOM1 expression (10 μM Bupropion vs vehicle, responder-derived neurons, day 35, PValue 0.039328923): −0.2212; logFC FGF1 expression (10 μM Bupropion vs vehicle, responder-derived neurons, day 35, PValue 0.040753088): 0.7441; logFC GPR89A expression (10 μM Bupropion vs vehicle, responder-derived neurons, day 35, PValue 0.040776978): −0.3135; logFC HAUS8 expression (10 μM Bupropion vs vehicle, responder-derived neurons, day 35, PValue 0.040813288): −0.3377; logFC TNNI3 expression (10 μM Bupropion vs vehicle, responder-derived neurons, day 35, PValue 0.04085042): −0.4473; logFC INMT expression (10 μM Bupropion vs vehicle, responder-derived neurons, day 35, PValue 0.04107423): 0.8156; logFC LHFPL3 expression (10 μM Bupropion vs vehicle, responder-derived neurons, day 35, PValue 0.041076888): 0.8454; logFC TJP3 expression (10 μM Bupropion vs vehicle, responder-derived neurons, day 35, PValue 0.041258334): −0.4285; logFC RNASEK expression (10 μM Bupropion vs vehicle, responder-derived neurons, day 35, PValue 0.041364592): −0.4148; logFC MACROD1 expression (10 μM Bupropion vs vehicle, responder-derived neurons, day 35, PValue 0.041485982): −0.4078; logFC DDX55 expression (10 μM Bupropion vs vehicle, responder-derived neurons, day 35, PValue 0.041521555): −0.177; logFC MAP4K1 expression (10 μM Bupropion vs vehicle, responder-derived neurons, day 35, PValue 0.041777603): −0.4541; logFC MADCAM1 expression (10 μM Bupropion vs vehicle, responder-derived neurons, day 35, PValue 0.042721026): −0.6346; logFC NMRK2 expression (10 μM Bupropion vs vehicle, responder-derived neurons, day 35, PValue 0.042934722): −0.915; logFC RARRES2 expression (10 μM Bupropion vs vehicle, responder-derived neurons, day 35, PValue 0.044126316): −0.5614; logFC GABRD expression (10 μM Bupropion vs vehicle, responder-derived neurons, day 35, PValue 0.044432972): −0.661; logFC SCN9A expression (10 μM Bupropion vs vehicle, responder-derived neurons, day 35, PValue 0.044462789): 0.653; logFC CTSD expression (10 μM Bupropion vs vehicle, responder-derived neurons, day 35, PValue 0.044610728): −0.3042; logFC MINDY3 expression (10 μM Bupropion vs vehicle, responder-derived neurons, day 35, PValue 0.044932218): 0.1907; logFC FBXO2 expression (10 μM Bupropion vs vehicle, responder-derived neurons, day 35, PValue 0.044969345): −0.5297; logFC MT1X expression (10 μM Bupropion vs vehicle, responder-derived neurons, day 35, PValue 0.045842417): −0.6858; logFC LRRC2 expression (10 μM Bupropion vs vehicle, responder-derived neurons, day 35, PValue 0.045853063): −0.8234; logFC ZFP69B expression (10 μM Bupropion vs vehicle, responder-derived neurons, day 35, PValue 0.046824204): 0.2565; logFC SLC45A2 expression (10 μM Bupropion vs vehicle, responder-derived neurons, day 35, PValue 0.046871029): −1.05; logFC KLHL21 expression (10 μM Bupropion vs vehicle, responder-derived neurons, day 35, PValue 0.047318696): −0.2723; logFC RILPL1 expression (10 μM Bupropion vs vehicle, responder-derived neurons, day 35, PValue 0.047560251): −0.1692; logFC PSMB10 expression (10 μM Bupropion vs vehicle, responder-derived neurons, day 35, PValue 0.048107795): −0.5669; logFC LHPP expression (10 μM Bupropion vs vehicle, responder-derived neurons, day 35, PValue 0.048445403): −0.2669; logFC RABEP2 expression (10 μM Bupropion vs vehicle, responder-derived neurons, day 35, PValue 0.049224822): −0.2496; logFC LARGE2 expression (10 μM Bupropion vs vehicle, responder-derived neurons, day 35, PValue 0.049340025): −0.566; logFC ZNF221 expression (10 μM Bupropion vs vehicle, responder-derived neurons, day 35, PValue 0.049596306): 0.3254; logFC LIN37 expression (10 μM Bupropion vs vehicle, responder-derived neurons, day 35, PValue 3.06E−05): −0.8411; logFC APOL1 expression [1]: −0.7489; logFC ATP8B4 expression [1]: −0.6945; logFC CA3 expression [1]: 0.6571; logFC CDK6 expression [1]: 0.2579; logFC CORT expression [1]: 0.6431; logFC CXCL11 expression (Table 6, downregulated) [1]: −1.176; logFC ESR2 expression [1]: 0.4833; logFC GOLGA8H expression [1]: −0.565; logFC GRPR expression [1]: 0.6268; logFC MT1E expression [1]: 2.123; logFC MT2A expression (Table 5, upregulated) [1]: 1.378; logFC PITX2 expression [1]: 0.9302; logFC SEPTIN5 expression [1]: 0.5877; number of genes significantly downregulated in responders after treatment, but not in non-responders [2]: 57 genes; number of genes significantly upregulated in responders after treatment, but not in non-responders [2]: 18 genes
